Results reported in the PolyMetriX glass transition set.
± gives the standard deviation of the reports.

Structure (SMILES) | glass transition temperature [°C]
*c1c(C)cc(C(c2cccnc2)c2cc(C)c(N3C(=O)CC(Nc4ccc(Cc5ccc(NC6CC(=O)N(*)C6=O)cc5)cc4)C3=O)c(C)c2)cc1C (repeat unit) | 219.00
*Nc1ccc(*)cc1OCCCCCCCCCCOc1ccc(C2CCC(CCCCC)CC2)cc1 (repeat unit) | 64.50
*C(=O)Nc1ccc(Cc2ccc(NC(=O)c3ccc4c(c3)C(=O)N(c3ccc(Oc5ccc(N6C(=O)c7ccc(*)cc7C6=O)cc5)cc3)C4=O)cc2)cc1 (repeat unit) | 270.00
*c1cccc(P(=O)(c2cccc(-n3c(=O)c4c(-c5ccccc5)c5c(=O)n(*)c(=O)c5c(-c5ccccc5)c4c3=O)c2)c2cc(C(F)(F)F)cc(C(F)(F)F)c2)c1 (repeat unit) | 320.00
*CC(*)C(=O)OCCCn1c2ccccc2c2ccccc21 (repeat unit) | 83.00
*CCCCCCCCCCCCOC(=O)c1ccc2cc(C(=O)O*)ccc2c1 (repeat unit) | 45.00
*C(=O)Nc1ccc(Oc2ccc(S(=O)(=O)c3ccc(Oc4ccc(NC(=O)c5ccc6c(c5)C(=O)N(c5ccc(Oc7ccc8ccc(Oc9ccc(N%10C(=O)c%11ccc(*)cc%11C%10=O)cc9)cc8c7)cc5)C6=O)cc4)cc3)cc2)cc1 (repeat unit) | 274.00
*Oc1ccc(/C=N/c2ccc(/N=C/c3ccc(Oc4ccc(C(c5ccccc5)(c5ccccc5)c5ccc(*)cc5)cc4)cc3)cc2)cc1 (repeat unit) | 230.00
*c1ccc(C(c2ccccc2)(c2ccc(-n3c(=O)c4cc5c(=O)n(*)c(=O)c5cc4c3=O)cc2)C(F)(F)F)cc1 (repeat unit) | 436.00
*Oc1c(C)cc(C2(c3cc(C)c(OC(=O)c4ccc(C(*)=O)cc4)c(C)c3)CCC3CCCCC3C2)cc1C (repeat unit) | 287.00
*c1cccc(P(=O)(c2ccc(Oc3ccc(C45CC6CC(CC(C6)C4)C5)cc3)cc2)c2cccc(-n3c(=O)c4cc5c(=O)n(*)c(=O)c5cc4c3=O)c2)c1 (repeat unit) | 330.00
*CCOCCOCCOC(=O)NCCCCCCNC(=O)O* (repeat unit) | -6.50
*CCC1CC(*)C2C3CC(CC)C(C3)C12 (repeat unit) | 138.00
*CCN* (repeat unit) [poly(2-oxazoline)s] | -35.77 ± 17
*c1ccc(Oc2ccc(N3C(=O)c4cccc(Oc5c(C)cc(Cc6cc(C)c(Oc7cccc8c7C(=O)N(*)C8=O)c(C)c6)cc5C)c4C3=O)cc2)cc1 (repeat unit) | 270.00
*Oc1ccc(C2(c3ccc(Oc4ccc(C(=O)c5ccc(Oc6ccc(C(=O)c7ccc(*)cc7)cc6)cc5)cc4)cc3)c3ccccc3-c3ccccc32)cc1 (repeat unit) | 231.00
*c1ccc(C(c2ccccc2)c2ccc(N(c3ccc(C)cc3)c3ccc(-c4ccc(N(*)c5ccc(C)cc5)cc4)cc3)cc2)cc1 (repeat unit) | 239.00
*CC(CSCCCCC)O* (repeat unit) | -68.00
*C(=O)OCCCSCCCCSCCCOC(=O)c1ccc(N2C(=O)c3ccc(*)cc3C2=O)cc1 (repeat unit) | 39.00
*C(=O)c1cc2c(cc1Cl)C(=O)N(c1cc(C(=O)OC)cc(N3C(=O)c4cc(*)c(Cl)cc4C3=O)c1)C2=O (repeat unit) | 321.00
*O[Si](*)(C)CCCOc1ccc(C(=O)Oc2ccc(-c3ccc(OC(=O)c4cc(OCCCCCCCCCCCC)c(OCCCCCCCCCCCC)c(OCCCCCCCCCCCC)c4)cc3)cc2)cc1 (repeat unit) | 48.00
*Oc1ccc(NC(=O)CCCCCCCCCCC(=O)Nc2ccc(*)cc2)cc1 (repeat unit) | 150.00

Structure (SMILES) | glass transition temperature [°C]
*C(=O)Nc1ccc(Oc2ccc(Oc3ccc(NC(=O)c4ccc5c(c4)C(=O)N(c4ccc(-c6sc(-c7ccc(N8C(=O)c9ccc(*)cc9C8=O)cc7)c(-c7ccccc7)c6-c6ccccc6)cc4)C5=O)cc3)cc2)cc1 (repeat unit) | 303.00
*CCOCCOC(=O)CCCCCC(=O)O* (repeat unit) | -41.50
*/C=C/c1ccc(*)c(-c2c(OCC(CC)CCCC)ccc3cc(-c4ccccc4)ccc23)c1 (repeat unit) | 141.00
*CC(CC(*)(C#N)C#N)c1ccc(CCl)cc1 (repeat unit) | 180.00
*CC1CC(*)OC(CCC)O1 (repeat unit) [Poly(vinyl butyral)] | 54.42 ± 9.2
*/C=C/c1ccc(*)c(-c2cc(OCCC(C)C)c(OCCC(C)C)cc2-c2ccccc2)c1 (repeat unit) | 164.00
*C(=O)c1ccc(Oc2ccc(S(=O)(=O)c3ccc(Oc4ccc(C(=O)c5ccc6c(c5)C(=O)N(c5ccc(Cc7ccc(N8C(=O)c9ccc(*)cc9C8=O)cc7)cc5)C6=O)cc4)cc3)cc2)cc1 (repeat unit) | 245.00
*CCN(*)C(=O)c1cc(F)cc(F)c1F (repeat unit) | 110.00
*c1ccc(NC(=O)CCCCCCCC(=O)Nc2ccc(S(*)(=O)=O)cc2)cc1 (repeat unit) | 178.00
*c1ccc2c(c1)C(=O)N(c1ccc(Sc3ccc(Sc4ccc(Sc5ccc(N6C(=O)c7ccc(C(*)(C(F)(F)F)C(F)(F)F)cc7C6=O)cc5)cc4)cc3)cc1)C2=O (repeat unit) | 233.00
*C1C(*)C2CC1C(C(=O)OCCC1CC3CCC1C3)C2C(=O)OCCC1CC2CCC1C2 (repeat unit) | 260.00
*c1ccc(C)c(N2C(=O)c3ccc(-c4ccc5c(c4)C(=O)N(*)C5=O)cc3C2=O)c1 (repeat unit) | 395.00
*c1ccc2c(c1)C(CCCCCC)(CCCCCC)c1cc(-c3ccc4c(c3)c3cc(*)ccc3n4-c3ccc(OC)cc3)ccc1-2 (repeat unit) | 174.00
*CC(O)CN(C)S(=O)(=O)c1cccc(S(=O)(=O)N(C)CC(O)COc2ccc(Sc3ccc(O*)cc3)cc2)c1 (repeat unit) | 90.00
*Cc1ccc(CNC(=O)c2cc(C(=O)N*)cc(C(C)(C)C)c2)cc1 (repeat unit) | 204.00
*CC(O)COC(=O)CCCCCCC(=O)OCC(O)COc1ccc(C(C)(C)c2ccc(O*)cc2)cc1 (repeat unit) | 35.00
*CCCCCCCC(*)C (repeat unit) | -58.00
*C(=O)OCCCCOC(=O)c1ccc(N2C(=O)c3ccc(*)cc3C2=O)cc1 (repeat unit) | 100.50
*C(*)(F)Cl (repeat unit) | 77.00
*OC(C)COC(=O)c1ccc(C(*)=O)cc1 (repeat unit) | 98.00
*Oc1ccc(CC(NC(=O)CCc2ccc(OC(=O)CCCCC(*)=O)cc2)C(=O)OCCCCCCCC)cc1 (repeat unit) | 28.00
*C(=O)Nc1ccc(Oc2ccccc2-c2ccccc2Oc2ccc(NC(=O)c3ccc4c(c3)C(=O)N(c3ccc(N5C(=O)c6ccc(*)cc6C5=O)cc3)C4=O)cc2)cc1 (repeat unit) | 268.00

Structure (SMILES) | glass transition temperature [°C]
*c1ccc2c(c1)C(=O)N(c1ccc(Oc3ccc(N4C(=O)c5ccc(C(*)O)cc5C4=O)cc3)cc1)C2=O (repeat unit) | 250.00
*CC(*)C(=O)OCCO (repeat unit) | 20.70
*c1cccc(C(=O)Nc2ccc(Oc3ccc(NC(=O)c4cccc(N5C(=O)c6ccc(-c7ccc8c(c7)C(=O)N(*)C8=O)cc6C5=O)c4)cc3)cc2)c1 (repeat unit) | 253.00
*c1ccc(CC(=O)Nc2ccc(S(=O)(=O)c3ccc(NC(=O)Cc4ccc(-c5sc(*)c(-c6ccccc6)c5-c5ccccc5)cc4)cc3)cc2)cc1 (repeat unit) | 252.00
*c1cccc(P(C)(=O)c2cccc(N3C(=O)c4ccc(NC(=O)OCCOc5ccc(P(=O)(c6ccccc6)c6ccc(OCCOC(=O)Nc7ccc8c(c7)C(=O)N(*)C8=O)cc6)cc5)cc4C3=O)c2)c1 (repeat unit) | 201.00
*CC(*)(C)C(=O)OCCS(=O)CC (repeat unit) | 25.00
*CC(*)(C)C(=O)OCc1ccsc1 (repeat unit) | 83.50
*Oc1ccc(C(c2ccc(Oc3ccc(C(=O)c4ccc(P(=O)(c5ccccc5)c5ccc(C(=O)c6ccc(*)cc6)cc5)cc4)cc3)cc2)(C(F)(F)F)C(F)(F)F)cc1 (repeat unit) | 207.00
*c1ccc(C(c2ccc(N3C(=O)c4ccc(Oc5ccc6ccc(Oc7ccc8c(c7)C(=O)N(*)C8=O)cc6c5)cc4C3=O)cc2)(C(F)(F)F)C(F)(F)F)cc1 (repeat unit) | 256.00
*CCN(CCOC(=O)Nc1ccc(C)c(NC(=O)O*)c1)c1ccc(/C=C/c2ccc([N+](=O)[O-])cc2)cc1 (repeat unit) | 121.00
*CC(O)COC(=O)CCCCC(=O)OCC(O)COc1ccc(/C=C(\C)c2ccc(O*)cc2)cc1 (repeat unit) | 33.00
*Oc1ccc(OC(=O)Oc2ccc(C(*)=O)cc2)cc1 (repeat unit) | 74.00
*CCCCCCN1C(=O)c2ccc(C(=O)Nc3ccc(S(=O)(=O)c4ccc(NC(=O)c5ccc6c(c5)C(=O)N(*)C6=O)cc4)cc3)cc2C1=O (repeat unit) | 198.00
*O[Si](C)(C)CC[Si](*)(C)C (repeat unit) | -88.00
*Oc1ccc(Oc2ccc(NC(=O)c3ccc(Oc4ccc(Oc5ccc(C(=O)Nc6ccc(*)cc6)cc5)cc4C)cc3)cc2)cc1C (repeat unit) | 218.50
*c1ccc(Oc2ccc(N3C(=O)c4ccc(Oc5ccc(C6(c7ccc(Oc8ccc9c(c8)C(=O)N(*)C9=O)cc7)CCC(c7ccccc7)CC6)cc5)cc4C3=O)cc2)cc1 (repeat unit) | 236.00
*C(F)(F)C(*)(OC(F)(F)F)OC(F)(F)F (repeat unit) | -60.00
*/C=C(/*)c1c(F)c(F)c(CCCC)c(F)c1F (repeat unit) | 110.00
*Oc1ccc(C(C)(C)c2ccc(OC(=O)OCCCOC(*)=O)cc2)cc1 (repeat unit) | 68.10
*c1ccc(Oc2cccc(-n3c(=O)c4cc5c(=O)n(*)c(=O)c5cc4c3=O)c2)cc1 (repeat unit) | 397.00
